One assay deals with GLS1. The experiment in a line: Targeted LC-MS/MS of intracellular metabolites in PAECs on soft or stiff matrix with GLS inhibitors. The assay is classed as cell-based, human. The settings on record: BPTES 10 μM, DON 5 μM; for glutamate and aspartate / glutamine, pyruvate, and succinate / lactate: compared with stiff matrix control; for alterations of metabolite expression in stiff matrix (stiffness-induced glutamine consumption, glutamate production, aspartate production) / lactate/pyruvate ratio (glycolysis): C968 10 μM, stiff matrix. The procedure: HEK293T cells (American Type Culture Collection) were cultivated in DMEM containing 10% fetal bovine serum (FBS). Primary human pulmonary arterial endothelial cells (PAECs) were grown in EGM-2 cell culture media (Lonza), and experiments were performed at passages 3 to 6. Primary human pulmonary arterial smooth muscle cells (PASMCs) were cultured in SmGM-2 cell culture media (Lonza), and experiments were performed at passages 3 to 9. Inhibitors of GLS1 (2, 3): BPTES (Bis-2-(5-phenylacetamido-1,3,4-thiadiazol-2-yl)ethyl sulphide), DON (6-Diazo-5-oxo-L-norleucine), and C968 (Glutaminase Inhibitor, Compound 968, 5-(3-Bromo-4-(dimethylamino)phenyl)-2,2-dimethyl-2,3,5,6-tetrahydrobenzo[a]phenanthridin-4(1H)-one) were purchased from Sigma-Aldrich and used at concentration of 10 μM, 5 μM and 10 μM respectively. Glutamate was purchased from Sigma Aldrich and used at concentration of 2 mM. Aspartate was purchased from Sigma Aldrich and used at concentration of 10 mM.
Metabolite extraction was performed essentially as described with minor modifications (35). Briefly, metabolites were extracted from cultured cells and CD31+ cells on dry ice using 80% aqueous methanol pre-cooled at −80° C. Metabolites were extracted from plasma pre-cleared by centrifugation at 20,000×g for 10 min at 4° C. Supernatants were extracted with four volumes of 100% methanol pre-cooled at −80° C. for four hours at −80° C. An internal standard, [^13C4]-2-oxoglutarate (Cambridge Isotope Laboratories) was added during metabolite extraction. Insoluble material from both cell and plasma extractions was removed by centrifugation at 20,000×g for 15 min at 4° C. The supernatant was analysed by targeted LC-MS/MS as previously described (36). Metabolites were separated using a ZIC-HILIC stationary phase (150 mm×2.1 mm×[…]; Merck). The MS parameters were optimized using a glutamine standard solution. Monitored mass transitions were 87>87 (pyruvate), 115>73+99 (succinate), 132>88 (aspartate), 145>101 (20G), […] (glutamine), 146>128 (glutamate), and 149>105 ([^13C4]-20G). Mass transitions and retention time windows were confirmed by the analysis of neat and matrix-spiked standards. Peak areas were quantified by Xcalibur Software (Thermo) and manually reviewed.
To determine whether GLS1 is critical for stiffness-induced and YAP/TAZ-dependent glutaminolysis, PAECs were cultivated in soft or stiff matrix, and exposed to known inhibitors of two isoforms of GLS1 (KGA and GAC), BPTES (Bis-2-(5-phenylacetamido-1,3,4-thiadiazol-2-yl)ethyl sulphide), DON (6-Diazo-5-oxo-L-norleucine), or CB-968 (glutaminase inhibitor, compound 968, C-968) (FIG. 3A-C) or siRNA (si-GLS; FIG. 3D-G). As quantified by LC-MS/MS, inhibition of GLS in PAECs blunted the stiffness-induced processes of glutamine consumption, glutamate production, and aspartate production (FIGS. 3A and E). […] Similar alterations of metabolic activity were observed when inhibiting GLS1 in PASMCs (data not shown).

In assay [1] the test system is PAECs. The experiment in a line: Apoptosis of PAECs on soft or stiff matrix (caspase 3/7 activity, cleaved caspase-3 staining). The assay is classed as cell-based, human. The procedure:
A-C) PAECs were plated on soft (1 kPa) or stiff (50 kPa) matrix and exposed to indicated treatments. Apoptosis (A-C) and proliferation (B-C) were quantified 48 h after plating. […] In all panels, mean expression in control groups (soft matrix) was assigned a fold change of 1, to which relevant samples were compared. Data are expressed as mean±SD (*P<0.05; ** P<0.01, ***P<0.001).
(§1) After various indicated treatments, cultured cells were fixed with PBS/PFA 4% for 10 min and permeabilized with PBS/Triton 100×0.1% for 10 min. The cells were then incubated with anti-PCNA (#4912; 1/100; Invitrogen), anti-Ki67 (ab15580; 1/200; Abcam), and/or anti-cleaved caspase-3 (1/200; Cell Signaling) at room temperature for 2 hours. Secondary antibodies coupled with Alexa-594 and/or Alexa-488 (Thermo Scientific) were used at 1/500. Nuclei were counterstained with DAPI (Sigma).
Caspase 3/7 activity was quantified using the Caspase-Glo 3/7 Assay (Promega), according to manufacturer's instructions. Briefly, cells were plated on hydrogel of different stiffness and treated as described. Twenty four hours after plating, cells were cultured in the presence or absence of serum for twenty-four hours. Cells were then lysed and 10 μg of total protein were incubated for 1 h with the caspase substrates, and luminescence was quantified by plate reader (SynergyHTX multi-mode reader, Biotek).

In assay [2] the test system is PAECs. The experiment in a line: Proliferation of PAECs (cell count, BrdU pulse, PCNA staining). The assay is classed as cell-based, human. Here is the method: A-C) PAECs were plated on soft (1 kPa) or stiff (50 kPa) matrix and exposed to indicated treatments. Apoptosis (A-C) and proliferation (B-C) were quantified 48 h after plating. […] Apoptosis (as reflected by cleaved caspase-3 staining, CC-3+) was increased by serum starvation in both soft and stiff conditions but was not affected by GLS1 inhibition. In all panels, mean expression in control groups (soft matrix) was assigned a fold change of 1, to which relevant samples were compared. Data are expressed as mean±SD (*P<0.05; ** P<0.01, ***P<0.001).
as §1
After specified pre-treatment or transfection protocols as indicated, PAECs or PASMCs were plated in triplicate in 6 well plates at 30 000 cells per well. After overnight incubation for cells to adhere, 6 wells were counted to determine initial count at time of treatments (glutamate, aspartate, BPTES, DON or C968). After 2 days, 4 days or 6 days, the contents of the wells were trypsinized and counted, and proliferation rate was calculated.
Exponentially growing cells were plated in the indicated matrix for 48 hours.

Assay [3] has as its system PAAFs. The experiment in a line: Metabolic activation of PAAFs cultivated on stiff matrix. The assay is classed as cell-based. The text has this: (§2) A-C) Pharmacological inhibition of GLS1 by either BPTES, C968 or CB839 blunted metabolic activation of PAAFs cultivated on stiff matrix as reflected by decreased glutaminolysis (A), glycolysis (B) and aspartate production (C). D-E) Pharmacological inhibition of GLS1 by either BPTES, C968 or CB839 decreased PAAFs dependent ECM remodelling upon stimulation by pro-inflammatory cytokines (EDN1, IL6 or TGF-b). […] G-H) Fibrilar collagen visualization (G) and quantification (H) by picrosirius red staining confirmed a decreased of ECM remodelling by activated PAAF (TGF-b) in presence of GLS1 inhibitors. I-M) PAAFs were cultivated upon indicated treatments. Cells were removed and pulmonary arterial endothelial cells (PAECs) were cultivated on the matrix synthesized by the PAAF. […] Data are expressed as mean±SEM (*P<0.05, § P<0.01, #P<0.001) of at least 3 independent experiments performed in triplicate. Paired samples were compared by 2-tailed Student's t test, while 1-way ANOVA and post-hoc Tukey's tests were used for group comparisons.

In assay [4] the test system is PAAFs. Put plainly: PAAF-dependent ECM remodelling on cytokine stimulation (RT-qPCR, picrosirius red). Format: cell-based. The settings on record: stimulation by pro-inflammatory cytokines (EDN1, IL6 or TGF-b).
Source text: as §2
Messenger RNAs were reverse transcribed using the Multiscript RT kit (Life Technologies) to generate cDNA. cDNA was amplified via fluorescently labeled Taqman primer sets using an Applied Biosystems 7900HT Fast Real Time PCR device. To specifically determine the relative expression of the two GLS1 isoforms KGA and GAC, TaqMan gene expression assays Hs01014019_m1 and Hs01022166_m1 were used respectively. Fold-change of RNA species was calculated using the formula (2^−ΔΔCt), normalized to RPLP0 expression.
Picrosirius Red stain was achieved through the use of 5 μm paraffin sections stained with 0.1% Picrosirius Red (Direct Red80, Sigma-Aldrich) and counterstained with Weigert's hematoxylin to reveal fibrillar collagen. The sections were then serially imaged using with an analyzer and polarizer oriented parallel and orthogonal to each other. Microscope conditions (lamp brightness, condenser opening, objective, zoom, exposure time, and gain parameters) were maintained throughout the imaging of all samples. A minimal threshold was set on appropriate control sections for each experiment in which only the light passing through the orthogonally-oriented polarizers representing fibrous structures (i.e., excluding residual light from the black background) was included. The threshold was maintained for all images across all conditions within each experiment. The area of the transferred regions that was covered by the thresholded light was calculated and at least 10 sections/vessel per condition were averaged together (NIH ImageJ software). Targeted LC-MS/MS

As for `O=C(Cc1ccccc1)Nc1nnc(CCSCCc2nnc(NC(=O)Cc3ccccc3)s2)s1` [BPTES, Bis-2-(5-phenylacetamido-1,3,4-thiadiazol-2-yl)ethyl sulphide], in the assay with GLS1, the glutamate and aspartate result is recorded as “decreased”; the “glutamine, pyruvate, and succinate” value was “increased”; the lactate entry is reported as “decreased”; the “alterations of metabolite expression in stiff matrix (stiffness-induced glutamine consumption, glutamate production, aspartate production)” value is “blunted”. Besides, the “lactate/pyruvate ratio (glycolysis)” value in the assay with GLS1 was “decreased”. Besides, the “apoptosis (cleaved caspase-3 staining, CC-3+)” value in the assay with PAECs [1] (serum starvation, soft and stiff conditions) is listed as “not affected”. Further, in the assay on PAECs [1] (soft (1 kPa) or stiff (50 kPa) matrix, 24 h after serum depletion, vs vehicle control), the “caspase 3/7 activity” value is reported as “No significant changes”. Further, the “proliferation in stiff matrix (PCNA+)” value with PAECs [2] (PAECs, stiff matrix, 48 h after plating) is recorded as “decreased”. In addition, in the assay with PAAFs [3], the aspartate production result was “decreased”, the glutaminolysis entry is listed as “decreased”, the glycolysis result is on record as “decreased” and the “metabolic activation of PAAFs” value is recorded as “blunted”. Besides, the “PAAFs dependent ECM remodelling” value in the assay on PAAFs [4] is on record as “decreased”.
Turning to `[N-]=[N+]=CC(=O)CC[C@H](N)C(=O)O` [DON, 6-Diazo-5-oxo-L-norleucine], in the assay on GLS1, the glutamate and aspartate entry is given as “decreased”; the “glutamine, pyruvate, and succinate” value is recorded as “increased”; the lactate entry was “decreased”; the “alterations of metabolite expression in stiff matrix (stiffness-induced glutamine consumption, glutamate production, aspartate production)” value is reported as “blunted”. The “lactate/pyruvate ratio (glycolysis)” value in the assay with GLS1 is listed as “decreased”.
As to `N[C@@H](CCC(=O)O)C(=O)O` [glutamate, Glutamate], the “cellular proliferation in cells with diminished GLS1 or YAP/TAZ” value in the assay with PAECs [2] (PAECs or PASMCs with siRNA knockdown, glutamate 2 mM, aspartate 10 mM supplementation, data not shown) is reported as “at least partially restored”.

The record behind these values is US11672795B2, “Compositions and methods for treating pulmonary vascular disease” (UNIVERSITY OF PITTSBURGH-OF THE COMMONWEALTH SYSTEM OF …, priority 2016, dated 2023).
